Reference: patent publication US9914730B2, “Azaquinazoline inhibitors of Atypical protein Kinase C” (Ignyta, Inc., priority 2012, dated 2018)

Molecular target: T1, full-length human PKCι (Homo sapiens, UniProt P41743)
T1 construct: Recombinant, full-length human PKCι expressed in Sf21 insect cells is also commercially available; purchased; host or cells: Sf21 insect cells
T1 sequence (P41743 1-596): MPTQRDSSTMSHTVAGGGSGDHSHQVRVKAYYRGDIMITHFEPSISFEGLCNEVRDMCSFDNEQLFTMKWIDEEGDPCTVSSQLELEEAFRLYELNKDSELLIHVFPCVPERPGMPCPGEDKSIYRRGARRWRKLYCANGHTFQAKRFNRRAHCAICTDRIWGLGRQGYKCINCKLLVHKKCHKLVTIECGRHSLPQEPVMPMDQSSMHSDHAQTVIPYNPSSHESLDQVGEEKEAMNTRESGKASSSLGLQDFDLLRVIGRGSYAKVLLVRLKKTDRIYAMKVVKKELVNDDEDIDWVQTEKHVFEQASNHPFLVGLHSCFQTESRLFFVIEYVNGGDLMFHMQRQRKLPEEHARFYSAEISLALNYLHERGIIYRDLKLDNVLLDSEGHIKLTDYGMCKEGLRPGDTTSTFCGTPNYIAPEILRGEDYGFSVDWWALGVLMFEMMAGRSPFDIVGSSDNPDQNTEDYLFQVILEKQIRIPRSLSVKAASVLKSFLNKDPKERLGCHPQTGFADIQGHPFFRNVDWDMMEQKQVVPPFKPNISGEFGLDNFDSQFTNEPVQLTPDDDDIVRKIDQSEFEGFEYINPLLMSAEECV
Experiment: PKCι IC50 IMAP assay, full-length PKCι at 150 μM ATP
Format: biochemical
Conditions: read-out: IC50 in IMAP assay against full length PKCi at 150 μM ATP
Outline: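 Compounds in 4% final DMSO are mixed with Sf21-derived full-length human PKCι (typically 15 pM) and 100 nM FAM-labelled pseudosubstrate peptide, then started with 150 μM ATP. Reaction runs 60 min at room temperature, is quenched with IMAP development reagent for 2 h, and fluorescence polarisation is measured to derive IC50.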

IC50 [µM] | SMILES
1 to 10 | c1cc2c(N[C@@H]3CCNC3)nc(N3CCOCC3)nc2cn1 [Example 1011, (2-Morpholin-4-yl-pyrido[3,4-d]pyrimidin-4-yl)-(R)-pyrrolidin-3-yl-amine]
1 to 10 | c1cc(-c2nccc3c(N[C@@H]4CCNC4)nc(N4CCOCC4)nc23)[nH]n1 [Example 1012, [2-Morpholin-4-yl-8-(2H-pyrazol-3-yl)-pyrido[3,4-d]pyrimidin-4-yl]-(R)-pyrrolidin-3-yl-amine]
0.1 to 1 | Nc1nccc2c(NC[C@@H](N)Cc3ccccc3)nc(N3CCOCC3)nc12 [Example 1013, N^4-((S)-2-Amino-3-phenyl-propyl)-2-morpholin-4-yl-pyrido[3,4-d]pyrimidine-4,8-diamine]
0.1 to 1 | N[C@H](CNc1nc(N2CCOCC2)nc2cnccc12)Cc1ccccc1 [Example 1014, (S)—N^1-(2-Morpholin-4-yl-pyrido[3,4-d]pyrimidin-4-yl)-3-phenyl-propane-1,2-diamine]
0.1 to 1 | Brc1cncc2nc(N3CCOCC3)nc(N3CCNCC3)c12 [Example 1015, 5-Bromo-2-morpholin-4-yl-4-piperazin-1-yl-pyrido[3,4-d]pyrimidine]
< 0.1 | c1ncc2nc(N3CCOCC3)nc(N3CCNCC3)c2c1C1CC1 [Example 1016, 5-Cyclopropyl-2-morpholin-4-yl-4-piperazin-1-yl-pyrido[3,4-d]pyrimidine]
< 0.1 | c1ccc(C[C@H]2CN(c3nc(N4CCOCC4)nc4cncc(C5CC5)c34)CCN2)cc1 [Example 1017, 4-((S)-3-Benzyl-piperazin-1-yl)-5-cyclopropyl-2-morpholin-4-yl-pyrido[3,4-d]pyrimidine]
< 0.1 | N#CC[C@H]1CN(c2nc(N3CCOCC3)nc3cncc(C4CC4)c23)CCN1 [Example 1018, [(S)-4-(5-Cyclopropyl-2-morpholin-4-yl-pyrido[3,4-d]pyrimidin-4-yl)-piperazin-2-yl]-acetonitrile]
< 0.1 | COc1cncc2nc(-c3ccnc4[nH]ccc34)nc(N3CCNCC3)c12 [Example 1200, 5-Methoxy-4-piperazin-1-yl-2-(1H-pyrrolo[2,3-b]pyridin-4-yl)-pyrido[3,4-d]pyrimidine]
< 0.1 | COc1cncc2nc(-c3ccnc4[nH]c(C)cc34)nc(N3CCNCC3)c12 [Example 1201, 5-Methoxy-2-(2-methyl-1H-pyrrolo[2,3-b]pyridin-4-yl)-4-piperazin-1-yl-pyrido[3,4-d]pyrimidine]
< 0.1 | COc1cncc2nc(-c3ccnc4[nH]c(Cc5ccccc5)cc34)nc(N3CCNCC3)c12 [Example 1202, 2-(2-Benzyl-1H-pyrrolo[2,3-b]pyridin-4-yl)-5-methoxy-4-piperazin-1-yl-pyrido[3,4-d]pyrimidine]
< 0.1 | COc1cncc2nc(-c3ccnc4[nH]c(Cc5ccccc5F)cc34)nc(N3CCNCC3)c12 [Example 1203, 2-[2-(2-Fluoro-benzyl)-1H-pyrrolo[2,3-b]pyridin-4-yl]-5-methoxy-4-piperazin-1-yl-pyrido[3,4-d]pyrimidine]
0.1 to 1 | CCc1cc2c(-c3nc(N4CCNCC4)c4c(OC)cncc4n3)ccnc2[nH]1 [Example 1204, 2-(2-Ethyl-1H-pyrrolo[2,3-b]pyridin-4-yl)-5methoxy-4-piperazin-1-yl-pyrido[3,4-d]pyrimidine]
0.1 to 1 | COC[C@H]1CN(c2nc(-c3ccnc4[nH]ccc34)nc3cncc(OC)c23)CCN1 [Example 1205, 5-Methoxy-4-((R)-3-methoxymethyl-piperazin-1-yl)-2-(1H-pyrrolo[2,3-b]pyridin-4-yl)-pyrido[3,4-d]pyrimidine]
< 0.1 | COc1cncc2nc(-c3ccnc4[nH]ccc34)nc(N3CCN[C@@H](CO)C3)c12 [Example 1206, {(R)-4-[5-Methoxy-2-(1H-pyrrolo[2,3-b]pyridin-4-yl)-pyrido[3,4-d]pyrimidin-4-yl]-piperazin-2-yl}-methanol]
0.1 to 1 | c1cc2c(N3CCNCC3)nc(-c3ccnc4[nH]ccc34)nc2cn1 [Example 1207, 4-Piperazin-1-yl-2-(1H-pyrrolo[2,3-b]pyridin-4-yl)-pyrido[3,4-d]pyrimidine]
0.1 to 1 | c1cc2c(N[C@@H]3CCNC3)nc(-c3ccnc4[nH]ccc34)nc2cn1 [Example 1208, (R)-Pyrrolidin-3-yl-[2-(1H-pyrrolo[2,3-b]pyridin-4-yl)-pyrido[3,4-d]pyrimidin-4-yl]-amine]

IC50 [µM] | SMILES
< 0.1 | c1cc(-c2nc(N3CCNCC3)c3c(C4CC4)cncc3n2)c2cc[nH]c2n1 [Example 1209, 5-Cyclopropyl-4-piperazin-1-yl-2-(1H-pyrrolo[2,3-b]pyridin-4-yl)-pyrido[3,4-d]pyrimidine]
< 0.1 | Clc1ncc(C2CC2)c2c(N3CCNCC3)nc(-c3ccnc4[nH]ccc34)nc12 [Example 1210, 8-Chloro-5-cyclopropyl-4-piperazin-1-yl-2-(1H-pyrrolo[2,3-b]pyridin-4-yl)-pyrido[3,4-d]pyrimidine]
< 0.1 | CC(C)c1cncc2nc(-c3ccnc4[nH]ccc34)nc(N3CCNCC3)c12 [Example 1211, 5-Isopropyl-4-piperazin-1-yl-2-(1H-pyrrolo[2,3-b]pyridin-4-yl)-pyrido[3,4-d]pyrimidine]
< 0.1 | FC(F)(F)c1cc2c(-c3nc(N4CCNCC4)c4c(C5CC5)cncc4n3)ccnc2[nH]1 [Example 1212]
< 0.1 | FC(F)(F)[C@H]1CN(c2nc(-c3ccnc4[nH]ccc34)nc3cncc(C4CC4)c23)CCN1 [Example 1213, 5-Cyclopropyl-2-(1H-pyrrolo[2,3-b]pyridin-4-yl)-4-((R)-3-trifluoromethyl-piperazin-1-yl)-pyrido[3,4-d]pyrimidine]
< 0.1 | FC(F)(F)[C@@H]1CN(c2nc(-c3ccnc4[nH]ccc34)nc3cncc(C4CC4)c23)CCN1 [Example 1214, 5-Cyclopropyl-2-(1H-pyrrolo[2,3-b]pyridin-4-yl)-4-((S)-3-trifluoromethyl-piperazin-1-yl)-pyrido[3,4-d]pyrimidine]
< 0.1 | Cc1cc2c(-c3nc(N4CCNC(C(F)(F)F)C4)c4c(C5CC5)cncc4n3)ccnc2[nH]1 (stereo not drawn) [Example 1215, 5-Cyclopropyl-2-(2-methyl-1H-pyrrolo[2,3-b]pyridin-4-yl)-4-(3-trifluoromethyl-piperazin-1-yl)-pyrido[3,4-d]pyrimidine]
< 0.1 | Cc1cc2c(-c3nc(N4CCN[C@@H](C5CC5)C4)c4c(C5CC5)cncc4n3)ccnc2[nH]1 [Example 1216, 5-Cyclopropyl-4-((S)-3-cyclopropyl-piperazin-1-yl)-2-(2-methyl-1H-pyrrolo[2,3-b]pyridin-4-yl)-pyrido[3,4-d]pyrimidine]
< 0.1 | Cc1cc2c(-c3nc(N4CCNCC4)c4c(C5CC5)cncc4n3)ccnc2[nH]1 [Example 1217, 5-Cyclopropyl-2-(2-methyl-1H-pyrrolo[2,3-b]pyridin-4-yl)-4-piperazin-1-yl-pyrido[3,4-d]pyrimidine]
< 0.1 | FC(F)(F)C1CN(c2nc(-c3ccnc4[nH]ccc34)nc3cncc(C4CC4)c23)CCN1 (stereo not drawn) [Example 1218, 5-Cyclopropyl-2-(1H-pyrrolo[2,3-b]pyridin-4-yl)-4-(3-trifluoromethyl-piperazin-1-yl)-pyrido[3,4-d]pyrimidine]
< 0.1 | c1ccc(C[C@H]2CN(c3nc(-c4ccnc5[nH]ccc45)nc4cncc(C5CC5)c34)CCN2)cc1 [Example 1219, 4-((S)-3-Benzyl-piperazin-1-yl)-5-cyclopropyl-2-(1H-pyrrolo[2,3-b]pyridin-4-yl)-pyrido[3,4-d]pyrimidine]
< 0.1 | c1cc(-c2nc(N3CCN[C@@H](C4CC4)C3)c3c(C4CC4)cncc3n2)c2cc[nH]c2n1 [Example 1220, 5-Cyclopropyl-4-((S)-3-cyclopropyl-piperazin-1-yl)-2-(1H-pyrrolo[2,3-b]pyridin-4-yl)-pyrido[3,4-d]pyrimidine]
< 0.1 | N#CC[C@H]1CN(c2nc(-c3ccnc4[nH]ccc34)nc3cncc(C4CC4)c23)CCN1 [Example 1221, {(S)-4-[5-Cyclopropyl-2-(1H-pyrrolo[2,3-b]pyridin-4-yl)-pyrido[3,4-d]pyrimidin-4-yl]-piperazin-2-yl}-acetonitrile]
< 0.1 | c1csc(-c2cc3c(-c4nc(N5CCNCC5)c5c(C6CC6)cncc5n4)ccnc3[nH]2)c1 [Example 1222, 5-Cyclopropyl-4-piperazin-1-yl-2-(2-thiophen-2-yl-1H-pyrrolo[2,3-b]pyridin-4-yl)-pyrido[3,4-d]pyrimidine]
< 0.1 | c1cc(-c2nc(N3CCNCC3)c3c(C4CC4)cncc3n2)c2cc(C3CC3)[nH]c2n1 [Example 1223, 5-Cyclopropyl-2-(2-cyclopropyl-1H-pyrrolo[2,3-b]pyridin-4-yl)-4-piperazin-1-yl-pyrido[3,4-d]pyrimidine]
10 to 40 | CCOC(=O)N1CCN(c2nc(-c3ccnc4[nH]c(C(F)(F)F)cc34)nc3cncc(C4CC4)c23)CC1 [Example 1224, 4-[5-Cyclopropyl-2-(2-trifluoromethyl-1H-pyrrolo[2,3-b]pyridin-4-yl)-pyrido[3,4-d]pyrimidin-4-yl]-piperazine-1-carboxylic acid ethyl ester]
